Source: ChEMBL document CHEMBL4418287, “Lysyl oxidase-like 2 inhibitors and uses thereof” (2018)
Activity calls are given as the source filed them.

What was measured:
Format in all cases: functional, organism-based
Mus musculus [1] = assay: Antifibrotic activity in C57BL/6 mouse model of bleomycin-induced lung fibrosis assessed as reduction in hydroxyproline in lung homogenates at 60 mg/kg, po pre-treated 1 hr to 1 day before bleomycin injection and measured after 14 to 28 days by chloramine T and Erlich's solution based assay
Mus musculus [2] = assay: Antifibrotic activity in C57BL/6 mouse model of bleomycin-induced lung fibrosis assessed as reduction in cross linked collagen level in lung at 60 mg/kg, po pre-treated 1 hr to 1 day before bleomycin injection and measured after 14 to 28 days by Picro-Sirius staining based assay
Mus musculus [3] = assay: Antifibrotic activity in C57BL/6 mouse model of bleomycin-induced lung fibrosis assessed as reduction in alpha smooth muscle actin level in lung at 60 mg/kg, po pre-treated 1 hr to 1 day before bleomycin injection and measured after 14 to 28 days by immunohistochemistry analysis
Mus musculus [4] = assay: Antifibrotic activity in C57BL/6 mouse model of bleomycin-induced lung fibrosis assessed as reduction in collagen level in lung at 60 mg/kg, po pre-treated 1 hr to 1 day before bleomycin injection and measured after 14 to 28 days by hydroxyproline assay
Mus musculus [5] = assay: Antifibrotic activity in C57BL/6 mouse model of bleomycin-induced lung fibrosis assessed as reduction in cross linked collagen level in lung at 60 mg/kg, po pre-treated 1 hr to 1 day before bleomycin injection and measured after 14 to 28 days by Masson's trichrome staining based assay

Measured: Activity

NCc1cc(Oc2cccc(C(=O)NCc3ccnc(Cl)c3)c2)ncn1
active: all assays above

NCc1cc(Oc2cccc(C(=O)N3CCN(c4ccccc4)CC3)c2)ncn1
active: all assays above
